For 16 compounds, IC50 results are on record in US7879884B2, “Aryl pyridyl sulfonamide derivatives, their manufacture and use as pharmaceutical agents” (Hoffmann-La Roche Inc., priority 2007, dated 2011).

The structures appear in SMILES notation.

This test has as its system HCT 116 cells. The test is described as follows: CellTiter-Glo Luminescent Cell Viability Assay in HCT 116 cells. It is filed as cell-based. The note with it: HCT 116 human colon carcinoma cells, 5 days (120 h) incubation, CellTiter-Glo luminescence, triplicate. From the text:
CellTiter-Glo™ Assay in HCT 116 Cells
The CellTiter-Glo™ Luminescent Cell Viability Assay (Promega) is a homogeneous method of determining the number of viable cells in culture based on quantitation of the ATP present, which signals the presence of metabolically active cells.
HCT 116 cells (human colon carcinoma, ATCC-No. CCI-247) were cultivated in RPMI 1640 medium with GlutaMAX™ I (Invitrogen, Cat-No. 61870-010), 5% Fetal Calf Serum (FCS, Sigma Cat-No. F4135 (FBS)); 100 Units/ml penicillin/[…] streptomycin (=Pen/Strep from Invitrogen Cat. No. 15140).
For the assay the cells were seeded in 384 well plates, 1000 cells per well, in the same medium. The next day the test compounds were added in various concentrations ranging from 30 μM to 0.0015 μM (10 concentrations, 1:3 diluted). After 5 days the CellTiter-Glo™ assay was done according to the instructions of the manufacturer (CellTiter-Glo™ Luminescent Cell Viability Assay, from Promega). In brief: the cell-plate was equilibrated to room temperature for approximately 30 minutes and than the CellTiter-Glo™ reagent was added. The contents were carefully mixed for 15 minutes to induce cell lysis. After 45 minutes the luminescent signal was measured in Victor 2, (scanning multiwell spectrophotometer, Wallac).
• Medium: RPMI 1640 with GlutaMAX™ I (Invitrogen, Cat-Nr. 61870), 5% FCS (Sigma Cat.-No. F4135), Pen/Strep (Invitrogen, Cat No. 15140). • HCT116 (ATCC-No. CCI-247): 1000 cells in 60 μl per well of 384 well plate (Greiner 781098, μClear-plate white) • After seeding incubate plates 24 h at 37° C., 5% CO2 2nd. day: Induction (Treatment with Compounds, 10 Concentrations):
In order to achieve a final concentration of 30 μM as highest concentration 3.5 μl of 10 mM compound stock solution were added directly to 163 μl media. Then step e) of the dilution procedure described below, was followed.
The IC50 is the concentration that gives 50% inhibition. `COc1cc(Cl)ccc1C(=O)NS(=O)(=O)c1ccc(-c2c(C)cccc2C)nc1` [Example 1-6, 6-(2,6-Dimethyl-phenyl)-pyridine-3-sulfonic acid 4-chloro-2-methoxy-benzoylamide] returned an IC50 of 0.5 to 7.5 µM.
For the compound `COc1cccc(OC)c1-c1ccc(S(=O)(=O)NC(=O)c2ccc(F)cc2C(F)(F)F)cn1` [Example 1-3, 6-(2,6-Dimethoxy-phenyl)-pyridine-3-sulfonic acid 4-fluoro-2-trifluoromethyl-benzoylamide], the IC50 was in the range of 0.5 to 7.5 µM.
To `Cc1cc(S(=O)(=O)NC(=O)c2ccc(F)cc2Cl)cnc1-c1ccccc1Cl` [Example 1-15, 6-(2-Chloro-phenyl)-5-methyl-pyridine-3-sulfonic acid 2-chloro-4-fluoro-benzoylamide] belongs 0.5 to 7.5 µM; to `COc1ccccc1-c1ncc(S(=O)(=O)NC(=O)c2ccc(Cl)cc2Cl)cc1C` [Example 1-12, 6-(2-Methoxy-phenyl)-5-methyl-pyridine-3-sulfonic acid 2,4-dichloro-benzoylamide], 3.98 µM; to `Cc1cc(S(=O)(=O)NC(=O)c2ccc(F)cc2C(F)(F)F)cnc1-c1ccccc1Cl` [Example 1-14, 6-(2-Chloro-phenyl)-5-methyl-pyridine-3-sulfonic acid 4-fluoro-2-trifluoromethyl-benzoylamide], 0.5 to 7.5 µM.
The figure for `COc1cc(Cl)ccc1C(=O)NS(=O)(=O)c1ccc(-c2ccccc2NS(C)(=O)=O)nc1` [Example 1-11, 6-(2-Methanesulfonylamino-phenyl)-pyridine-3-sulfonic acid 4-chloro-2-methoxy-benzoylamide] is 0.5 to 7.5 µM.
The figure for `CSc1ccccc1-c1ccc(S(=O)(=O)NC(=O)c2ccc(Cl)cc2Cl)cn1` [Example 1-7, 6-(2-Methylsulfanyl-phenyl)-pyridine-3-sulfonic acid 2,4-dichloro-benzoylamide] is 0.5 to 7.5 µM; for `COc1cccc(OC)c1-c1ccc(S(=O)(=O)NC(=O)c2ccc(F)cc2Cl)cn1` [Example 1-2, 6-(2,6-Dimethoxy-phenyl)-pyridine-3-sulfonic acid 2-chloro-4-fluoro-benzoylamide] it is 0.5 to 7.5 µM.
Consider `CS(=O)(=O)c1ccccc1-c1ccc(S(=O)(=O)NC(=O)c2ccc(Cl)cc2Cl)cn1` [Example 1-8, 6-(2-Methanesulfonyl-phenyl)-pyridine-3-sulfonic acid 2,4-dichloro-benzoylamide], for which inhibition was half-maximal at 2.94 µM (IC50).
The figure for `COc1cccc(OC)c1-c1ccc(S(=O)(=O)NC(=O)c2ccc(Cl)cc2Cl)cn1` [Example 1-1, 6-(2,6-Dimethoxy-phenyl)-pyridine-3-sulfonic acid 2,4-dichloro-benzoylamide] is 1.43 µM.
As to `COc1ccccc1-c1ncc(S(=O)(=O)NC(=O)c2ccc(F)cc2C(F)(F)F)cc1C` [Example 1-13, 6-(2-Methoxy-phenyl)-5-methyl-pyridine-3-sulfonic acid 4-fluoro-2-trifluoromethyl-benzoylamide], the IC50 lay in the range of 0.5 to 7.5 µM.
Turning to `COc1cc(Cl)ccc1C(=O)NS(=O)(=O)c1ccc(-c2c(OC)cccc2OC)nc1` [Example 1-4, 6-(2,6-Dimethoxy-phenyl)-pyridine-3-sulfonic acid 4-chloro-2-methoxy-benzoylamide], the IC50 lay within 0.5 to 7.5 µM.
The figure for `O=C(NS(=O)(=O)c1ccc(-c2ccc(C(F)(F)F)cc2C(F)(F)F)nc1)c1ccc(Cl)cc1Cl` [Example 1-9, 6-(2,4-Bis-trifluoromethyl-phenyl)-pyridine-3-sulfonic acid 2,4-dichloro-benzoylamide] is 0.5 to 7.5 µM; for `COc1cc(Cl)ccc1C(=O)NS(=O)(=O)c1ccc(-c2c(C)cc(C)cc2C)nc1` [Example 1-5, 6-(2,4,6-Trimethyl-phenyl)-pyridine-3-sulfonic acid 4-chloro-2-methoxy-benzoylamide] it is 0.5 to 7.5 µM.
For the compound `COc1cccc(F)c1-c1ccc(S(=O)(=O)NC(=O)c2ccc(Cl)cc2Cl)cn1` [Example 1-10, 6-(2-Fluoro-6-methoxy-phenyl)-pyridine-3-sulfonic acid 2,4-dichloro-benzoylamide], the IC50 fell in the range of 0.5 to 7.5 µM.
`COc1cc(Cl)ccc1C(=O)NS(=O)(=O)c1cnc(-c2ccccc2Cl)c(C)c1` [Example 1-16, 6-(2-Chloro-phenyl)-5-methyl-pyridine-3-sulfonic acid 4-chloro-2-methoxy-benzoylamide] had an IC50 of 0.5 to 7.5 µM.
